Among the data in patent publication US7772271B2 (priority 2004, dated 2010) are melting point values, retold here.

Molecules are shown by their SMILES.

Turning to `COCCOc1ccc2c(C#N)c(-c3ccc(NC(=O)OC(c4ccccc4)C4CC4)cc3)n(C3CC3)c2c1` (stereo not shown) [Compound 1437], the melting point (commonly the temperature of the solid-liquid transition) was in the range of 74 to 76 °C.

In turn, `CC(C)S(=O)(=O)Nc1ccc(-c2c(C#N)c3ccc(N4CCOCC4)cc3n2C2CCC2)cc1` [Compound 2801] yielded a melting point of 220 °C.

In turn, `CCCS(=O)(=O)Nc1ccc(-c2c(C#N)c3ccc(OCCCN4C(=O)CN(C)C4=O)cc3n2C2CCC2)cc1` [Compound 3299] showed a melting point of 178 to 179 °C.

As to `CCS(=O)(=O)Nc1ccc(-c2c(C#N)c3ccc(C(=O)N4CCOCC4)cc3n2C2CCC2)cc1` [Compound 2898], the melting point was in the range of 220 to 222 °C.

As to `CCCS(=O)(=O)Nc1ccc(-c2c(C#N)c3ccc(-c4ncccc4Cl)cc3n2C2CCC2)cc1` [Compound 2972], the melting point lay within 235 to 237 °C.

In turn, `CC(C)NC(=O)Nc1ccc(-c2c(C#N)c3ccc(Oc4ccc(Cl)nn4)cc3n2C2CCC2)cc1` [Compound 2762] returned a melting point of 264 to 269 °C.

`CC(C)OC(=O)Nc1ccc(-c2c(C#N)c3ccc(N4CCOCC4)cc3n2CC2CC2)cc1` [Compound 2891]: the melting point lay within 170 to 180 °C.

`CCCS(=O)(=O)Nc1ccc(-c2c(C#N)c3ccc(Oc4ncccc4C#N)cc3n2C2CCC2)cc1C` [Compound 3290] came in with a melting point of 176 to 180 °C.

Turning to `CCCS(=O)(=O)Nc1ccc(-c2c(C#N)c3ccc(Oc4ncccc4C#N)cc3n2C2CC2)c(C)c1` [Compound 3304], the melting point lay within 222 to 226 °C.

Consider `COCCOc1ccc2c(C#N)c(-c3ccc(C(=O)N4CCCC4)cc3)n(C3CCC3)c2c1` [Compound 2756], for which the melting point was 162 to 164 °C.

In the case of `N#Cc1c(-c2ccc(N3CCCS3(=O)=O)cc2)n(C2CC2)c2cc(N3CCOCC3)ccc12` [Compound 2927], the melting point lay within 260 to 265 °C.

As for `CC(C)n1c(-c2ccc(N(S(C)(=O)=O)S(C)(=O)=O)cc2)c(C#N)c2ccc(OC(F)F)cc21` [Compound 1342], the melting point is 232 to 234 °C.

In turn, `CCCS(=O)(=O)Nc1ccc(-c2c(C#N)c3ccc(Oc4nccc(C)n4)cc3n2C2CCC2)cc1` [Compound 2902] had a melting point of 223 to 227 °C.

For `CC(C)OC(=O)Nc1c(F)cc(-c2c(C#N)c3ccc(OCCF)cc3n2C2CCC2)cc1F` [Compound 3039], the melting point fell in the range of 150 to 155 °C.

In turn, `N#Cc1nccnc1Oc1ccc2c(C#N)c(-c3ccc(NS(=O)(=O)C4CCC4)cc3)n(CC3CC3)c2c1` [Compound 3295] returned a melting point of 236 to 238 °C.

Regarding `CCn1c(-c2ccc(NC(=O)OCCCl)cc2)c(C#N)c2ccc(OCCOC)cc21` [Compound 1373], the melting point was 148 to 151 °C.

The compound `CC(C)NS(=O)(=O)Nc1ccc(-c2c(C#N)c3ccc(Oc4nccnc4Cl)cc3n2C2CCC2)cc1` [Compound 2946] displayed a melting point of 144 to 146 °C.

In turn, `COCCOc1ccc2c(C#N)c(-c3ccc(NC(=O)O[C@H](C)C4CC4)cc3)n(C3CC3)c2c1` [Compound 2711] showed a melting point of 157 to 159 °C.

On to `CC(C)S(=O)(=O)Nc1ccc(-c2c(C#N)c3ccc(OC(F)F)cc3n2CC2CCCO2)cc1` (stereo not shown) [Compound 1336], for which the melting point lay within 173 to 176 °C.

The compound `CC(OC(=O)Nc1ccc(-c2c(C#N)c3ccc(OCC(F)F)cc3n2C2CCC2)cc1Cl)C(F)(F)F` (stereo not shown) [Compound 3051] showed a melting point of 184 to 185 °C.

`CCOc1ccc2c(C#N)c(-c3ccc(C(=O)N4CC[C@@H](O)C4)cc3)n(C3CCC3)c2c1` [Compound 2251] came in with a melting point of 172 to 173 °C.

`CCn1c(-c2ccc(N3CCCS3(=O)=O)cc2)c(C#N)c2ccc(N3CCN(C(=O)c4ccccc4)CC3)cc21` [Compound 1358] yielded a melting point of 260 to 261 °C.

Compound `CCCS(=O)(=O)Nc1ccc(-c2c(C#N)c3ccc(N4CCCC4)cc3n2C2CCC2)cc1` [Compound 2955] showed a melting point of 229 to 234 °C.

Regarding `CC(C)NC(=O)Nc1ccc(-c2c(C#N)c3ccc(OC4COCOC4)cc3n2C2CCC2)cc1` [Compound 2882], the melting point lay within 210 to 212 °C.

Take `CCN(CC)c1nc2ccc(-c3c(C#N)c4ccc(OC)cc4n3CC)cc2s1` [compound 1343, 2-(2-Diethylaminobenzothiazol-6-yl)-1-ethyl-6-methoxy-1H-indole-3-carbonitrile]: the melting point is 155 to 158 °C.

Consider `CC(C)NC(=O)Nc1ccc(-c2c(C#N)c3ccc(N4CCOCC4)cc3n2C2CC2)cc1` [Compound 2855], for which the melting point is 264 °C.

For `CC(OC(=O)Nc1ccc(-c2c(C#N)c3ccc(OC4COCOC4)cc3n2C2CCC2)cc1)C(C)(C)C` (stereo not shown) [Compound 2861], the melting point is 221 to 232 °C (dec.).

`CCNS(=O)(=O)Nc1ccc(-c2c(C#N)c3ccc(OC4CCOCC4)cc3n2C2CCC2)cc1` [Compound 2834] returned a melting point of 199 to 201 °C.

Consider `C[C@@H](OC(=O)Nc1ccc(-c2c(C#N)c3ccc(OCS(C)(=O)=O)cc3n2C2CCC2)cc1)C1CC1` [compound 2988, (R)-[4-(3-cyano-1-cyclobutyl-6-methanesulfonylmethoxy-1H-indol-2-yl)-phenyl]-carbamic acid 1-cyclopropyl-ethyl ester], for which the melting point fell in the range of 218 to 223 °C.

`C[C@@H](OC(=O)Nc1ccc(-c2c(C#N)c3ccc(-c4ncccc4C(F)(F)F)cc3n2C2CCC2)cc1)C1CC1` [Compound 2997] gave a melting point of 90 to 98 °C.

Regarding `Cc1csc(Nc2ccc(-c3c(C#N)c4ccc(Oc5ncccn5)cc4n3C3CCC3)cc2)n1` [compound 3180, 1-cyclobutyl-2-[4-(4-methyl-thiazol-2-ylamino)-phenyl]-6-(pyrimidin-2-yloxy)-1H-indole-3-carbonitrile], the melting point was 223 to 225 °C.

Compound `Cc1csc(Nc2ccc(-c3c(C#N)c4ccc(OCCF)cc4n3C3CCC3)cc2)n1` [Compound 3205] returned a melting point of 199 to 201 °C.

`CCCS(=O)(=O)Nc1ccc(-c2c(C#N)c3ccc(Oc4nc(C)ccc4C#N)cc3n2C2CCC2)cc1` [Compound 3309] came in with a melting point of 219 to 221 °C.

For `CC(C)OC(=O)Nc1ccc(-c2c(C#N)c3ccc(OCCC(O)CO)cc3n2C2CCC2)cc1` (stereo not shown) [compound 1429, {4-[3-cyano-1-cyclobutyl-6-(3,4-dihydroxy-butoxy)-1H-indol-2-yl]-phenyl}-carbamic acid isopropyl ester], the melting point lay in the range of 132 to 134 °C.

The compound `Cc1nnc(SCCOc2ccc3c(C#N)c(-c4ccc(NC(=O)OC(C)C)cc4)n(C4CCC4)c3c2)s1` [Compound 2699] gave a melting point of 150 to 151 °C.

Regarding `CCOCCOc1ccc2c(C#N)c(-c3ccc(NC(=O)NC(C)C)cc3)n(C3CCC3)c2c1` [Compound 2612], the melting point lay in the range of 148 to 150 °C.

On to `C[C@@H](OC(=O)Nc1ccc(-c2c(C#N)c3ccc(OC4COCOC4)cc3n2C2CCC2)cc1)C(F)(F)F` [Compound 2885], for which the melting point lay within 189 to 190 °C.

For `N#Cc1c(-c2ccc(OC(=O)N3CCOCC3)cc2)n(C2CCC2)c2cc(OC3CCOCC3)ccc12` [Compound 2814], the melting point lay in the range of 178 to 179 °C.

Take `COCCOc1ccc2c(C#N)c(-c3ccc(C(=O)NCCN4CCOCC4)cc3)n(C3CCC3)c2c1` [Compound 2844]: the melting point lay within 169 to 170 °C.

`CC(C)(C)c1csc(Nc2ccc(-c3c(C#N)c4ccc(Oc5ncccn5)cc4n3C3CCC3)cc2)n1` [Compound 3179]: the melting point is 240 to 241 °C.
